“Also recorded” adds a separate entry of the source.
Assays:
[1] = test system: Staphylococcus epidermis ATCC 35984 biofilm; test: MBIC assay (crystal violet); assay type: cell-based, Staphylococcus epidermidis; details: 48 h at 37° C., absorbance 540 nm
Experimental: (§1) The exact weighed amount was noted and the volume of solvent to reach a 80 mM dilution calculated. Half of the volume was added first, by adding Tween 80 and let stand for 5 minutes. In a second step, the other half of the volume DMSO was added and resuspended to help the dilution process. The closed tube was inverted 5-10 times and then vortexed very thoroughly for at least 30 seconds. If after this procedure crystals were still visible, the tube was placed in a shaker at 37° C. at 150 rpm for at least 30 minutes (it is indicated if the dissolution period was longer than 2 h). […] In case of Bis(4-Chlorophenyl) thiosulfonate, a lower concentrated stock solution of 2 mM needed to be prepared. For that, the required amount of compound was weighed in and 2% v/v Tween80 and 2% v/v DMSO of the end volume of the stock solution was added to the substance. This mix was heated in a water bath set to 40° C. and occasionally shaken. When the whole amount of the substance reached dissolution, the volume was filled up with growth medium until the end volume. This 2 mM stock solution of Bis(4-Chlorophenyl) thiosulfonate was used in the MIC plate and diluted two-fold, resulting in a testing range of Bis(4-Chlorophenyl) thiosulfonate from 1 mM to 0.002 mM.
(§2) Frozen aliquots of Staphylococcus epidermis ATCC 35984 and Pseudomonas aeruginosa ATCC 27853 were used to inoculate a tryptic soy agar (TSA) plate and were incubated overnight at 37° C. After incubation 3-5 well-isolated colonies with the same morphology were selected from the TSA plate and resuspended in 2 ml 0.9% saline solution with 3-6 glass beads and vortexed. The optical density of the bacterial suspension was measured at 600 nm (OD600) with a spectrophotometer (Evolution™ 201/220 UV-Visible Spectrophotometer, Thermo Fisher Scientific) and diluted to an OD600 of 0.2. The MBIC assay was performed in a 96-microtiter plate. […] The solution was resuspended and transferred to a flat-bottom 96-well plate and the absorbance measured at 540 nm with the spectrophotometer. […]

[2] = test system: Pseudomonas aeruginosa ATCC 27853 biofilm; test: MBIC assay (crystal violet); assay type: cell-based; details: 48 h at 37° C., absorbance 540 nm
Experimental: as §1, §2

HepG2 cell line = test: MTT cytotoxicity test; assay type: cell-based, human; details: 24 h, 7.8 μM to 1 mM, emulsified with Tween-80/DMSO
Experimental: Scope. As standard tests cytotoxicity is measured on Caco-2 and HepG2 cell lines. Cytotoxicity of mentioned cell lines was determined by measuring the amount of converted MTT (3-(4,5-dimethylthiazol-2-yl)-2,5-diphenyltetrazolium bromide) by a mitochondrial dehydrogenase after exposure of various concentrations of the antimicrobial compounds. In living cells the dehydrogenase converts the soluble MTT into water insoluble purple formazan crystals that can not pass the cell membrane. The higher the metabolic activity of the cell, the more purple crystals are formed, the lower the cytotoxicity of the antimicrobial compound. HepG2 adherent cells were isolated from human liver and show epithelial morphology. Culture condition of the cells were followed based on the standard protocols. HepG2 cell line was cultured in 75-cm^2 culture flasks. Dulbecco's modified Eagle's minimum essential medium (DMEM)+Glutamax, supplemented with 10% (v/v) inactivated fetal calf serum (FCS) (Gibco), and penicillin (100 U/ml.)/streptomycin (100 μg/ml.) was utilized as medium for the growing cells. The cells were preserved in an incubator to provide them with the optimum moisture and temperature (humidified atmosphere of 95% air and 5% CO2 at 37° C. for 72 hours). The cells were grown on flat bottom 96-well plates to the appropriate density to run the experiments. The cells were exposed to increasing concentrations of emulsified test compound (8 concentration, ranging from 7.8 μM to 1 mM) in standard culture medium (Catalogue 31331028, ThemoFischer Scientific) for each cell line. It should be noted that all the experiments were conducted in FBS (Catalog A3840101, ThermoFischer Scientific) and antibiotic free medium. The concentration of Tween-80 and DMSO that is present in the assay to emulsify the antimicrobial compound was in the range from 0,007% to 1%. The cells were incubated for 24 h with emulsified test compound and the assay was performed based on the standard protocol. By the end of the experiment the medium (cell supernatants) was removed and the lysis buffer (0.04 M hydrochloric acid, in propan-2-ol) was added to each well to solubilize the purple formazan crystals. As the final step, the absorbance was recorded by a multi-well reader at 595 nm. Control experiment with emulsifiers Tween 80 and DMSO but without antimicrobial compounds was performed in a same way on both cell lines. The results from all experiments were expressed as mean #standard error of the mean (SEM) conducted in triplicate (three wells/condition) of three independent experiments. Differences between results were statistically evaluated using One-way ANOVA with Bonferroni post-hoc test.

| SMILES | S. epidermidis MBIC90 [1] | P. aeruginosa MBIC90 [2] | cytotoxic effect on HepG2 cells (MTT) (HepG2 cell line) |
| --- | --- | --- | --- |
| Clc1ccc(SSc2ccc(Cl)cc2)cc1 [Bis (4-chlorophenyl) disulfide, Bis(4-chlorophenyl) disulfide] | >4 mM | >4 mM | cytotoxic effects |
| O=S(=O)(Sc1ccc(Cl)cc1)c1ccc(Cl)cc1 [Bis (4-chlorophenyl) thiosulfonate, Bis(4-chlorophenyl) thiosulfonate] |  |  | cytotoxic effects |
| Fc1ccc(SSc2ccc(F)cc2)cc1 [Bis (4-fluorophenyl) disulfide, Bis(4-fluorophenyl) disulfide] |  |  | cytotoxic effects |
| CC(C)SS(=O)(=O)C(C)C [Di-isopropyl thiosulfonate] |  |  | cytotoxic effects; also recorded: cytotoxicity is lowest |
| CCCSSCCC [Di-n-propyl disulfide, reference compound] | 4 mM | >4 mM |  |
| CCCSS(=O)(=O)CCC [Di-n-propyl thiosulfonate, reference compound] | 2 mM | 0.5 mM |  |
